Numbering of substitutions follows the chain as printed. Where two headings read alike, the source gives them in different places.
How the values were obtained:
AR protein = biological target: T1, AR protein (Homo sapiens, UniProt P10275, T878A); assay: Cycloheximide chasing assay of AR degradation in LNCaP cells; assay type: cell-based; details: in the presence of cycloheximide (CHX)
T1 sequence (P10275 1-920 T878A): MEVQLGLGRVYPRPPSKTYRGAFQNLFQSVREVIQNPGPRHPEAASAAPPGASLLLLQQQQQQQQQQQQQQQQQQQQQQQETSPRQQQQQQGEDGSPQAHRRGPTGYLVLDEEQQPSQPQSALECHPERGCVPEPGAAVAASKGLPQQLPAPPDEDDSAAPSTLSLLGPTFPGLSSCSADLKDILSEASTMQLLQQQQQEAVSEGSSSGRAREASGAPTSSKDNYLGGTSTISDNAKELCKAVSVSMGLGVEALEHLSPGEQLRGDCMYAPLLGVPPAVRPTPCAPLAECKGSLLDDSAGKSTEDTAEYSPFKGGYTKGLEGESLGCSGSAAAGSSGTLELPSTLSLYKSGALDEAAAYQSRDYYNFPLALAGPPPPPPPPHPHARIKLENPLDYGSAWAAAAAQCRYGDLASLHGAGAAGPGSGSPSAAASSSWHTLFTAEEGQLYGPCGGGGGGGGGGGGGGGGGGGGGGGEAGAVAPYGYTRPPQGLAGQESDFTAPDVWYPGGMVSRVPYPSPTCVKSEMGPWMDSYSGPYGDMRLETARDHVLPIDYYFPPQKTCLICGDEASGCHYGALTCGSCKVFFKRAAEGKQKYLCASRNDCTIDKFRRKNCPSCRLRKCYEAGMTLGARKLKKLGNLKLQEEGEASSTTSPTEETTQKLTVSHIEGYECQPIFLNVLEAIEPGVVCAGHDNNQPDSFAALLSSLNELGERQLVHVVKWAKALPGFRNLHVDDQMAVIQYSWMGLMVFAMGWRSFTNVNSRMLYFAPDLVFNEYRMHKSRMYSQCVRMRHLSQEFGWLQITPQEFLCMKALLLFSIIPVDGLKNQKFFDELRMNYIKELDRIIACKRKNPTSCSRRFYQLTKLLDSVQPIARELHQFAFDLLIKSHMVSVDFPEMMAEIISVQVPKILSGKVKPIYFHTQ
Description: AR protein “degradation” in prostate cancer cells was measured by using cycloheximide (a protein synthesis inhibitor) chasing assay method. Briefly, LNCaP cells were incubated with testing ASC compound at the designated concentrations for 24 hours. Subsequently, cycloheximide was added to the cells at a concentration of 15 μg/ml to block new protein synthesis. After incubation, cells were harvested at designated time periods and the resultant change in AR protein levels were analysed using Western Blot analysis as described above.

[1] = biological target: T2, Androgen Receptor (AR) protein expression (Homo sapiens, UniProt P10275, T878A); assay: Western Blot analysis of AR protein expression in LNCaP cells; assay type: cell-based
T2 sequence (P10275 1-920 T878A): T1 sequence (P10275 1-920 T878A)

[2] = biological target: T3, Androgen Receptor (AR) protein expression (Homo sapiens, UniProt P10275, H875Y, form not given); assay: Western Blot analysis of AR protein expression in CWR22Rv1 cells; details: for IC50: read-out: Reduction of AR expression IC50 (μM) 24 h, Western blotting, 24 h post-incubation
T3 sequence (P10275 1-920 H875Y): T1 sequence (P10275 1-920 T878A) with H875Y, A878T

[3] = system: CWR22Rv1 cells (human prostate cancer); assay: MTT cell growth assay, CWR22Rv1 cells; assay type: cell-based; details: 5 days, read-out: Inhibition of Tumor cells growth IC50
Description: The MTT cell proliferation assay was applied in the present invention to detect the capability of compounds to suppress or inhibit prostate cancer cells growth. […] Briefly, 1×10^3 LNCaP or CWR22Rv1 cells suspended in complete medium were plated into each well of a 96-well Microtest III tissue culture plate (Falcon, N.J.). Two days later, the medium was replaced with RPMI-1640 medium containing 10% charcoal/dextran-deprived FBS (hormone-deprived fetal bovine serum). Testing compounds were added to the medium at indicated concentrations with or without 1 nM DHT and cells were cultured for 5 days in an incubator (at 37° C.). MTT substrate solution (5 mg/ml in PBS) in 1/10 of volume was added to the cells in each well at 2 hours before harvesting. After 2 hour incubation, the plates were centrifuged (10 min at 1,000 rpm) and the supernatant from each well was carefully removed. A 100 μl of lysis buffer (50% dimethyl formamide, 5% sodium dodecyl sulphate, 0.35 M acetic acid, and 50 mM HCl) was added to each well to lyse the cells and dissolved tetrazolium in each well. The relative quantity of enzyme activity from each well was measured based on absorbance read at a wavelength of 450 nm using a Bio-RAD BenchMark microplate reader. Data derived from the MTT assay were also verified by the actual cell count and cell morphology on a separate plate set up in parallel.
For inhibition of tumor cell growth, in vitro, cells were growth in the presence of testing compounds for 5 days, and the cell growth was assayed by standard MTT assay.

[4] = Stability in acidic condition (0.1 N HCl, 37° C.); assay type: physicochemical
Excerpt: (§1) Also, at 24 hr where stability of JM49 was only 4%, while its derivative Compound 6 had improved to 79%. Similar improvements in stability (from 6-24 hr) were also observed in the conditions of rat plasma (Table 4) and human plasma (Table 5).

[5] = Stability in human plasma; assay type: in vitro ADME; details: 37° C.
Excerpt: as §1

Stability in rat plasma = assay type: in vitro ADME; details: 37° C.
Excerpt: as §1

With `COc1ccc(C=CC(=O)C=C(O)C=Cc2ccc(OC)c(OC)c2)cc1OC` [ASC-J9 ®, 1,7-Bis-(3,4-dimethoxy-phenyl)-5-hydroxy-hepta-1,4,6-trien-3-one, reference compound] the “AR protein degradation (Western Blot, in words)” value (AR protein) was “enhances AR protein degradation”.

For `COc1ccc(/C=C/C(=O)C(C(=O)/C=C/c2ccc(OC)c(OC)c2)=C(O)/C=C/c2ccc(OC)c(OC)c2)cc1OC` [ASC-JM4], the “Reduction of AR expression (Western Blot, in words)” value [1] was “capable of reducing endogenous AR expression” and the “Reduction of AR expression (Western Blot, in words)” value [2] was “capable of reducing endogenous AR expression”.

With `COc1ccc(/C=C/C(=O)C2CC(c3ccc(OC)c(OC)c3)(C(C(=O)/C=C/c3ccc(OC)c(OC)c3)C(=O)/C=C/c3ccc(OC)c(OC)c3)CC2=O)cc1OC` (centres unmarked) [ASC-JM5] the “AR protein degradation (Western Blot, in words)” value (AR protein) was “enhances AR protein degradation”.

Work on `COc1ccc(/C=C/C(=O)C(C)(CC2CC2)C(=O)/C=C/c2ccc(OC)c(OC)c2)cc1OC` [Compound 1] yielded an IC50 ([3]; Homo sapiens, 120 h) of 2.4 µM.

With `COc1ccc(/C=C/C(=O)C(C)(CC2CCC2)C(=O)/C=C/c2ccc(OC)c(OC)c2)cc1OC` [Compound 2] the melting point was 161 to 162 °C.

For `COc1ccc(C=CC(=O)C(CC2CCCC2)=C(O)C=Cc2ccc(OC)c(OC)c2)cc1OC` [Compound 3], the IC50 [2] was 2.8 µM.

Work on `COc1ccc(/C=C/C(=O)C(C)(CC2CCCCC2)C(=O)/C=C/c2ccc(OC)c(OC)c2)cc1OC` [Compound 5] yielded an IC50 ([3]; Homo sapiens, 120 h) of 4.6 µM and a melting point of 128 to 129 °C.

For `CCN(CC)C(=O)CC(C)(C(=O)/C=C/c1ccc(OC)c(OC)c1)C(=O)/C=C/c1ccc(OC)c(OC)c1` [Compound 6], the “Concentration change (%) in acidic condition” value ([4]; 0 h) was 100%, the “Concentration change (%) in acidic condition” value ([4]; 2 h) was 100% and the “Concentration change (%) in acidic condition” value ([4]; 4 h) was 99%. The “Concentration change (%) in acidic condition” value ([4]; 24 h) was 79%, the “Concentration change (%) in acidic condition” value ([4]; 48 h) was 56% and the “Concentration change (%) in human plasma” value ([5]; 0 h) was 100%. For the same compound, the “Concentration change (%) in human plasma” value ([5]; 6 h) was 91%, the “Concentration change (%) in human plasma” value ([5]; 24 h) was 54% and the “Concentration change (%) in human plasma” value ([5]; 48 h) was 27%.

In the case of `COc1ccc(/C=C/C(=O)C(C)(CC(=O)N(C)C)C(=O)/C=C/c2ccc(OC)c(OC)c2)cc1OC` [Compound 7], the “Concentration change (%) in acidic condition” value ([4]; 0 h) is reported as 100%, the “Concentration change (%) in acidic condition” value ([4]; 1 h) is reported as 99% and the “Concentration change (%) in acidic condition” value ([4]; 2 h) is reported as 99%. The “Concentration change (%) in acidic condition” value ([4]; 4 h) was 98%, the “Concentration change (%) in acidic condition” value ([4]; 24 h) was 81% and the “Concentration change (%) in acidic condition” value ([4]; 48 h) was 58%. For the same compound, the “Concentration change (%) in human plasma” value ([5]; 6 h) was 95%, the “Concentration change (%) in human plasma” value ([5]; 24 h) was 71% and the “Concentration change (%) in human plasma” value ([5]; 48 h) was 49%.

`COc1ccc(/C=C/C(=O)C(F)(CC2CC2)C(=O)/C=C/c2ccc(OC)c(OC)c2)cc1OC` [Compound 13] showed a melting point of 104 to 105 °C.

With `COc1ccc(/C=C/C(=O)C(F)(CC2CCC2)C(=O)/C=C/c2ccc(OC)c(OC)c2)cc1OC` [Compound 14] the melting point was 98 to 100 °C.

For `COc1ccc(/C=C/C(=O)C(F)(CC(=O)N(C)C)C(=O)/C=C/c2ccc(OC)c(OC)c2)cc1OC` [Compound 18], the IC50 ([3]; Homo sapiens, 120 h) was greater than 7.5 µM.

With `CCCCC(F)(C(=O)C=Cc1ccc(OC)c(OC)c1)C(=O)C=Cc1ccc(OC)c(OC)c1` (centres unmarked) [Compound 19] the IC50 [3] was 4.7 µM and the IC50 [2] was greater than 5 µM.

With `COc1ccc(/C=C/C(=O)C(CC(=O)N(C)C)=C(O)/C=C/c2ccc(OC)c(OC)c2)cc1OC` [JM77] the “Concentration change (%) in acidic condition” value ([4]; 0 h) was 100%, the “Concentration change (%) in acidic condition” value ([4]; 1 h) was 14% and the “Concentration change (%) in acidic condition” value ([4]; 2 h) was 8%. For the same compound, the “Concentration change (%) in acidic condition” value ([4]; 6 h) was 0%, the “Concentration change (%) in acidic condition” value ([4]; 24 h) was 0% and the “Concentration change (%) in rat plasma” value (Stability in rat plasma; 0 h) was 100%. For the same compound, the “Concentration change (%) in rat plasma” value (Stability in rat plasma; 1 h) was 93%, the “Concentration change (%) in rat plasma” value (Stability in rat plasma; 2 h) was 88% and the “Concentration change (%) in rat plasma” value (Stability in rat plasma; 6 h) was 73%. The “Concentration change (%) in rat plasma” value (Stability in rat plasma; 24 h) was 27%, the “Concentration change (%) in rat plasma” value (Stability in rat plasma; 48 h) was 7% and the “Concentration change (%) in human plasma” value ([5]; 0 h) was 100%. For the same compound, the “Concentration change (%) in human plasma” value ([5]; 1 h) was 88%, the “Concentration change (%) in human plasma” value ([5]; 2 h) was 76% and the “Concentration change (%) in human plasma” value ([5]; 6 h) was 45%. The “Concentration change (%) in human plasma” value ([5]; 24 h) was 11% and the “Concentration change (%) in human plasma” value ([5]; 48 h) was 1%.

Compound `CCOC(=O)CCC(=O)C=Cc1ccc(O)c(OC)c1` [Monomer 6, 6-(4-Hydroxy-3-methoxy-phenyl)-4-oxo-hex-5-enoic acid ethyl ester] has a melting point of 55 to 56 °C.

Source: patent publication US9259402B2, “Compounds with (1 E, 6E)-1,7-bis-(3,4-dimethoxyphenyI)-4,4-disubstituted-hepta-1,6-diene-3,5-dione structural scaffold, their biological activity, and uses thereof” (AndroScience Corporation, priority 2007, dated 2016)
